The values that follow are results of earlier work, collected in PMC3273554 (Molecular Pharmaceutics, 2011).

A value given as a limit tells only on which side of the number the result lay.

The test system of data set [1] is HLA-A201. The following applies: 100µg (63.8nmol) with 50µg PADRE T helper epitope in IFA.
Data set [2] concerns melanoma, BRAF V600E.
The test system of data set [3] is B16F10. To be noted: delivered with poly(I:C) and anti-CD40, boosted; prophylactic B16F10 model.
Data set [4] deals with T cells. The following applies: intracellular IFN-γ staining.

With SMYDFFVWL [Trp2 2M], the “IFN-γ elicited compared to vaccination with wild type peptide” value in data set [1] is “higher amounts of IFN-γ”. Take `CCCS(=O)(=O)Nc1ccc(F)c(C(=O)c2c[nH]c3ncc(-c4ccc(Cl)cc4)cc23)c1F` [vemurafenib]: in data set [2], the “Response rate in trials” value is reported as at most 81%. As to SIYDFFVWL [deltaV], in data set [3], the “Tumor growth delay compared to wild type peptide” value is on record as “no increased growth delay”. The “T cell responsiveness to Trp2” value in data set [4] is listed as “increased T cell responsiveness”.
